Results reported in patent publication US7132271B2, “Methods for enhancing the production of viral vaccines in cell culture” (priority 1995, dated 2006).

Test system: human PKR
Experiment: Western blot analysis of PKR protein in U937 transfectants
Assay type: cell-based
Settings: U937-neo cells
Description: Cell extracts (100 μg) were separated on a 10% SDS-polyacrylamide gel and electrotransferred onto nitrocellulose membrane. The membranes were incubated with anti-PKR monoclonal antibody (Meurs et al. Cell 1990) at 1:1000 in BLOTTO (5% nonfat dry milk, 0.05% Tween-20 in Tris-buffered saline). Final detection of PKR was facilitated by probing with a secondary horseradish peroxidase-conjugated goat anti-mouse antibody (Santa Cruz Biotech) and using a chemiluminesence method (Amersham ECL).

Substance: IFN-γ: recombinant human IFN-γ, Amgen
- PKR protein level following treatment with IFN: increased
